Test results taken from PubChem BioAssay AID1259407 (Chemical Carcinogenesis Research Information System (CCRIS), 2018).
Calls of active or inactive are those of the source. The rule behind the calls is not given here.

Test system: CCRIS mutagenicity, Ames/micronucleus/aberration tests
Assay: CCRIS mutagenicity studies
[1] = Test System: AMES SALMONELLA TYPHIMURIUM, Strain/Indicator: TA98, Metabolic Activation: NONE, Method: STANDARD PLATE
[2] = Test System: AMES SALMONELLA TYPHIMURIUM, Strain/Indicator: TA98, Metabolic Activation: RAT, LIVER, S-9, AROCLOR 1254, Method: STANDARD PLATE
[3] = Test System: AMES SALMONELLA TYPHIMURIUM, Strain/Indicator: TA100, Metabolic Activation: NONE, Method: STANDARD PLATE
[4] = Test System: AMES SALMONELLA TYPHIMURIUM, Strain/Indicator: TA100, Metabolic Activation: RAT, LIVER, S-9, AROCLOR 1254, Method: STANDARD PLATE
[5] = Test System: AMES SALMONELLA TYPHIMURIUM, Strain/Indicator: TA1535, Metabolic Activation: NONE, Method: STANDARD PLATE

SMILES: O=c1cc(-c2ccc(O)cc2)oc2cc(O)cc(O)c12
- mutagenic call (Test System: AMES SALMONELLA TYPHIMURIUM, Strain/Indicator: TA97, Metabolic Activation: NONE, Method: STANDARD PLATE): inactive; negative
- mutagenic call (Test System: AMES SALMONELLA TYPHIMURIUM, Strain/Indicator: TA97, Metabolic Activation: RAT, LIVER, S-9, AROCLOR 1254, Method: STANDARD PLATE): inactive; negative
- mutagenic call [1]: inactive; negative
- mutagenic call [2]: inactive; negative
- mutagenic call [3]: inactive; negative
- mutagenic call [4]: inactive; negative
- mutagenic call (Test System: AMES SALMONELLA TYPHIMURIUM, Strain/Indicator: TA102, Metabolic Activation: NONE, Method: STANDARD PLATE): inactive; negative
- mutagenic call (Test System: AMES SALMONELLA TYPHIMURIUM, Strain/Indicator: TA102, Metabolic Activation: RAT, LIVER, S-9, AROCLOR 1254, Method: STANDARD PLATE): inactive; negative
- mutagenic call [5]: inactive; negative
- mutagenic call (Test System: AMES SALMONELLA TYPHIMURIUM, Strain/Indicator: TA1535, Metabolic Activation: RAT, LIVER, S-9, AROCLOR 1254, Method: STANDARD PLATE): inactive; negative
- mutagenic call (Test System: AMES SALMONELLA TYPHIMURIUM, Strain/Indicator: TA1538, Metabolic Activation: NONE, Method: STANDARD PLATE): inactive; negative
- mutagenic call (Test System: AMES SALMONELLA TYPHIMURIUM, Strain/Indicator: TA1538, Metabolic Activation: RAT, LIVER, S-9, AROCLOR 1254, Method: STANDARD PLATE): inactive; negative
- mutagenic call (Test System: Mouse lymphoma, Strain/Indicator: L5178Y (tk+/tk-), Metabolic Activation: None, Method: Suspension/plate): active; positive
- mutagenic call (Test System: Mouse lymphoma, Strain/Indicator: L5178Y (tk+/tk-), Metabolic Activation: Rat, Liver, S-9, Aroclor 1254, Method: Suspension/plate): active; positive

SMILES: CC[C@H](C)OS(C)(=O)=O
- mutagenic call [3]: active; positive
- mutagenic call [5]: active; positive
- mutagenic call (Test System: CHINESE HAMSTER V-79, Strain/Indicator: V-79/6-THIOGUANINE, Metabolic Activation: NONE): active; positive

SMILES: CCOC(/C=C(\C)CCC=C(C)C)OCC
- mutagenic call (Test System: AMES SALMONELLA TYPHIMURIUM, Strain/Indicator: TA97, Metabolic Activation: HAMSTER, LIVER, S-9, AROCLOR 1254 (10%), Method: PREINCUBATION): inactive; negative
- mutagenic call (Test System: AMES SALMONELLA TYPHIMURIUM, Strain/Indicator: TA97, Metabolic Activation: NONE, Method: PREINCUBATION): inactive; negative
- mutagenic call (Test System: AMES SALMONELLA TYPHIMURIUM, Strain/Indicator: TA97, Metabolic Activation: RAT, LIVER, S-9, AROCLOR 1254 (10%), Method: PREINCUBATION): inactive; negative
- mutagenic call (Test System: AMES SALMONELLA TYPHIMURIUM, Strain/Indicator: TA98, Metabolic Activation: HAMSTER, LIVER, S-9, AROCLOR 1254 (10%), Method: PREINCUBATION): inactive; negative
- mutagenic call (Test System: AMES SALMONELLA TYPHIMURIUM, Strain/Indicator: TA98, Metabolic Activation: NONE, Method: PREINCUBATION): inactive; negative
- mutagenic call (Test System: AMES SALMONELLA TYPHIMURIUM, Strain/Indicator: TA98, Metabolic Activation: RAT, LIVER, S-9, AROCLOR 1254 (10%), Method: PREINCUBATION): inactive; negative
- mutagenic call (Test System: AMES SALMONELLA TYPHIMURIUM, Strain/Indicator: TA100, Metabolic Activation: HAMSTER, LIVER, S-9, AROCLOR 1254 (10%), Method: PREINCUBATION): inactive; negative
- mutagenic call (Test System: AMES SALMONELLA TYPHIMURIUM, Strain/Indicator: TA100, Metabolic Activation: NONE, Method: PREINCUBATION): inactive; negative
- mutagenic call (Test System: AMES SALMONELLA TYPHIMURIUM, Strain/Indicator: TA100, Metabolic Activation: RAT, LIVER, S-9, AROCLOR 1254 (10%), Method: PREINCUBATION): inactive; negative
- mutagenic call (Test System: AMES SALMONELLA TYPHIMURIUM, Strain/Indicator: TA1535, Metabolic Activation: HAMSTER, LIVER, S-9, AROCLOR 1254 (10%), Method: PREINCUBATION): active; positive
- mutagenic call (Test System: AMES SALMONELLA TYPHIMURIUM, Strain/Indicator: TA1535, Metabolic Activation: NONE, Method: PREINCUBATION): inactive; negative
- mutagenic call (Test System: AMES SALMONELLA TYPHIMURIUM, Strain/Indicator: TA1535, Metabolic Activation: RAT, LIVER, S-9, AROCLOR 1254 (10%), Method: PREINCUBATION): active; positive

SMILES: O=C(N=c1sn(C(=O)c2cccc([N+](=O)[O-])c2)c2ccc([N+](=O)[O-])cc12)c1cccc([N+](=O)[O-])c1
- mutagenic call (Test System: AMES SALMONELLA TYPHIMURIUM, Strain/Indicator: TA100, Metabolic Activation: S-9, Method: STANDARD PLATE): active; positive

SMILES: Nc1ccc(CCc2ccccc2)cc1
- mutagenic call [1]: inactive; negative
- mutagenic call [2]: active; positive
- mutagenic call [3]: inactive; negative
- mutagenic call [4]: active; positive
